Source: ChEMBL document CHEMBL2331502, “Discovery of a novel series of quinolone α7 nicotinic acetylcholine receptor agonists” (Bioorg Med Chem Lett, 2013)

Legend:
[1] = target: T1, Neuronal acetylcholine receptor subunit alpha-7 (Rattus norvegicus, UniProt Q05941); test: Agonist activity at rat alpha7 nAChR expressed in HEK293 cells assessed as calcium ion influx by FRET assay; type: cell-based
[2] = Ratio of drug level in brain to plasma in ip dosed rat after 30 mins; type: ADME, organism-based; conditions: read-out: BPR
[3] = target: Neuronal acetylcholine receptor subunit alpha-7 (Rattus norvegicus) (UniProt Q05941); test: Agonist activity at rat alpha7 nAChR expressed in HEK293 cells assessed as peak intensity of acetylcholine-induced response by whole-cell patch clamp electrophysiology paradigm assay relative to control; type: cell-based
Sequence of Neuronal acetylcholine receptor subunit alpha-7 (Rattus norvegicus) (Q05941 whole entry): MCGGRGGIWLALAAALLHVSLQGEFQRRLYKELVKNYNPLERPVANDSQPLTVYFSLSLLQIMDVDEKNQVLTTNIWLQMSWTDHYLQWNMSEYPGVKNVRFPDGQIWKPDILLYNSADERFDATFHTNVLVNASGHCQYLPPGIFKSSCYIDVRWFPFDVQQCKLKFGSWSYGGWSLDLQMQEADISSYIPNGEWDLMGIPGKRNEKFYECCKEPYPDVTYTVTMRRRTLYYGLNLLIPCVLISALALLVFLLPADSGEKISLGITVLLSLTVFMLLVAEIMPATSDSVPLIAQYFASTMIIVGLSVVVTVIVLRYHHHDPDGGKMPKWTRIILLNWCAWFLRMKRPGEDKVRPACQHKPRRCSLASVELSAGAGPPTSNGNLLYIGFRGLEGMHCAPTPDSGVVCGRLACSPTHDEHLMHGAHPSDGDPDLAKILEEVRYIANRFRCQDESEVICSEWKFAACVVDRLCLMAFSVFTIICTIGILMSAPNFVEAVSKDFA

[4] = target: Neuronal acetylcholine receptor subunit alpha-7 (Rattus norvegicus) (UniProt Q05941); test: Agonist activity at rat alpha7 nAChR expressed in HEK293 cells assessed as area under the curve of acetylcholine-induced response by whole-cell patch clamp electrophysiology paradigm assay relative to control; type: cell-based
[5] = Dissociation constant, pKa of the compound; type: physicochemical
[6] = target: T1, Neuronal acetylcholine receptor subunit alpha-7; test: Agonist activity at rat alpha7 nAChR expressed in HEK293 cells assessed as area under the curve of acetylcholine-induced response by whole-cell patch clamp electrophysiology paradigm assay; type: cell-based
[7] = Permeability of the compound at pH 7.4 by PAMPA; type: ADME; conditions: read-out: permeability
[8] = Efflux ratio of the compound in human Caco2 cells; type: ADME, cell-based; conditions: Caco-2
[9] = Selectivity ratio of EC50 for alpha1beta1deltaepsilon nAChR (unknown origin) to EC50 for rat alpha7 nAChR
[10] = Selectivity ratio of EC50 for alpha4beta2 nAChR (unknown origin) to EC50 for rat alpha7 nAChR
[11] = Selectivity ratio of IC50 for 5HT3 receptor (unknown origin) to EC50 for rat alpha7 nAChR
[12] = Selectivity ratio of EC50 for alpha3beta4 nAChR (unknown origin) to EC50 for rat alpha7 nAChR
[13] = Ratio of drug level in brain to plasma in sc dosed rat after 30 mins; type: ADME, organism-based; conditions: read-out: BPR
[14] = target: Acetylcholine receptor; alpha1/beta1/delta/gamma (Homo sapiens, UniProt P02708+P07510+P11230+Q07001); test: Agonist activity at alpha1beta1deltaepsilon nAChR (unknown origin); type: protein-complex assay
Sequence of Acetylcholine receptor; alpha1/beta1/delta/gamma (P02708 whole entry): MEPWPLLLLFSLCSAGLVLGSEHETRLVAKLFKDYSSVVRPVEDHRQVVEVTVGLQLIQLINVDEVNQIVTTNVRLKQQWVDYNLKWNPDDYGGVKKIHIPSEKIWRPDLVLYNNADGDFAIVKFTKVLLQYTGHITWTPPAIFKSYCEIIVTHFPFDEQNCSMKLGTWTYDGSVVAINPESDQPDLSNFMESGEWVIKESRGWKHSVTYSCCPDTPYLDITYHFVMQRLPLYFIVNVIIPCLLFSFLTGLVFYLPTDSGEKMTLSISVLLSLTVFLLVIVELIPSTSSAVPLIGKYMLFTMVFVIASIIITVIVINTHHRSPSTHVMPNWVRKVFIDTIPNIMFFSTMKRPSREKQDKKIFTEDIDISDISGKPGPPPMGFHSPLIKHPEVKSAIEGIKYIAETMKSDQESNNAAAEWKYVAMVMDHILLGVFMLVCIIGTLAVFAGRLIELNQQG
Sequence of Acetylcholine receptor; alpha1/beta1/delta/gamma (P07510 whole entry): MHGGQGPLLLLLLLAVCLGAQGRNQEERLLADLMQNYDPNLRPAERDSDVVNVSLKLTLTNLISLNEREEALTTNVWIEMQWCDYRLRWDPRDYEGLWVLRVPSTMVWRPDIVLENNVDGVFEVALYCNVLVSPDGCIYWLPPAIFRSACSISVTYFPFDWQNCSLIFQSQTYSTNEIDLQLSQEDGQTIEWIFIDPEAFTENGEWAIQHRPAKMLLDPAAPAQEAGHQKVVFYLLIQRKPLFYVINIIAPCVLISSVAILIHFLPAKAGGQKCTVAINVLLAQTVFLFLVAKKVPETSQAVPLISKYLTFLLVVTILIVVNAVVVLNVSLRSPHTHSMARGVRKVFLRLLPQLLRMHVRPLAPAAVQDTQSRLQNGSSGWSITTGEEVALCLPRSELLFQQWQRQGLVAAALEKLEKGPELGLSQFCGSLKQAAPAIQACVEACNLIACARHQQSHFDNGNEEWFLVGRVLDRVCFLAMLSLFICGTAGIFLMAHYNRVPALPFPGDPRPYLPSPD
Sequence of Acetylcholine receptor; alpha1/beta1/delta/gamma (P11230 whole entry): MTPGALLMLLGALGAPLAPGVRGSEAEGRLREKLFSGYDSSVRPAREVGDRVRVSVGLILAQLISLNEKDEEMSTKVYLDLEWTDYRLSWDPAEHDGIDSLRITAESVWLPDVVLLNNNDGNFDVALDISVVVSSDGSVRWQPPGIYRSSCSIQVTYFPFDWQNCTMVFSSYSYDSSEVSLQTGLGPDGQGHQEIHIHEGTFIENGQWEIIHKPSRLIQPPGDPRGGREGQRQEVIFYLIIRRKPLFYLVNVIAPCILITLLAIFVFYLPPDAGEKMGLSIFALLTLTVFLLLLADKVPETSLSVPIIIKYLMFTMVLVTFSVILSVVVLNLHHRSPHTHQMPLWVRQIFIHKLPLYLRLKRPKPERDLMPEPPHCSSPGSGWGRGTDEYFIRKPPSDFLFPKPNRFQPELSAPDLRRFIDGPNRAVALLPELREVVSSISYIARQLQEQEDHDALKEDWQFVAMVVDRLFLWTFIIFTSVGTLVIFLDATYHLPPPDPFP
Sequence of Acetylcholine receptor; alpha1/beta1/delta/gamma (Q07001 whole entry): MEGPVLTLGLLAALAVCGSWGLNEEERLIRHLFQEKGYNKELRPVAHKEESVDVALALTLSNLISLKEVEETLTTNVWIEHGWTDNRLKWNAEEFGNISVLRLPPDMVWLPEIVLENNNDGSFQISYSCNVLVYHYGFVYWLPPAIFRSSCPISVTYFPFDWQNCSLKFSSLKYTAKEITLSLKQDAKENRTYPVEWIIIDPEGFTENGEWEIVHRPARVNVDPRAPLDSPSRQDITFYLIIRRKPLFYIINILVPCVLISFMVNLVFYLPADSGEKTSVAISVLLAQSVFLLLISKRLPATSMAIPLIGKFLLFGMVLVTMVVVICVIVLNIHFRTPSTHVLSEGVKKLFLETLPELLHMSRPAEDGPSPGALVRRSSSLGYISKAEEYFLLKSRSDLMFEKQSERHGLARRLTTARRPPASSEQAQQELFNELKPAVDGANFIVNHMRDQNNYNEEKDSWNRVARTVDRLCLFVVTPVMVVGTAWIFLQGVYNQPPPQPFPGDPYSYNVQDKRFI

[15] = target: Neuronal acetylcholine receptor; alpha3/beta4 (Homo sapiens, UniProt P30926+P32297); test: Agonist activity at alpha3beta4 nAChR (unknown origin); type: protein-complex assay
Sequence of Neuronal acetylcholine receptor; alpha3/beta4 (P30926 whole entry): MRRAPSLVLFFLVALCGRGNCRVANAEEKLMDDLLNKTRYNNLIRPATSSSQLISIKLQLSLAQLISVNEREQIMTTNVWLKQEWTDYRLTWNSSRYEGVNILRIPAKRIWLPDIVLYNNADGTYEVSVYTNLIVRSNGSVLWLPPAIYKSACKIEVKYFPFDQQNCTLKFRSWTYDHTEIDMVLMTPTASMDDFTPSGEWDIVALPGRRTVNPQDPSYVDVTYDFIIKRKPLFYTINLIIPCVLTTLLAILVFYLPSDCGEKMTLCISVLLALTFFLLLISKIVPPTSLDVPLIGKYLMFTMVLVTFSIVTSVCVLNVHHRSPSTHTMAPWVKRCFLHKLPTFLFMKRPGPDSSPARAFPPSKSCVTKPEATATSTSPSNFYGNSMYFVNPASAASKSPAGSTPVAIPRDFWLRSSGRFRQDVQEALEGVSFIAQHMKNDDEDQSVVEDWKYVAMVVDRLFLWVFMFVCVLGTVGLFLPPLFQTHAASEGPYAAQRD
Sequence of Neuronal acetylcholine receptor; alpha3/beta4 (P32297 whole entry): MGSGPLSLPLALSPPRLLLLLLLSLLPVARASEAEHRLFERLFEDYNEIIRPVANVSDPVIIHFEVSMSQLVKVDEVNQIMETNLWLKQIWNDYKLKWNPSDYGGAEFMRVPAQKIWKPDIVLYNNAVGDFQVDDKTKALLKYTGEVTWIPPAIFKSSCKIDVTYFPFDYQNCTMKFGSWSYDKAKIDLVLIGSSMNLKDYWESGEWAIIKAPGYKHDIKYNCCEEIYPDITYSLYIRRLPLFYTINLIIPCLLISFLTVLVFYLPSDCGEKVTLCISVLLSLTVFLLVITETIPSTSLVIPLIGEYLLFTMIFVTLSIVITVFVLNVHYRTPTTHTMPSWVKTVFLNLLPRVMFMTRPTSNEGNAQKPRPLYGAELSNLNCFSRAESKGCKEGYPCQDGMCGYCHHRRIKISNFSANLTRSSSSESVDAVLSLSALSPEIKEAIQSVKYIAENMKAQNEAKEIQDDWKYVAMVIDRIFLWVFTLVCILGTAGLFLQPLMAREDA

[16] = target: Neuronal acetylcholine receptor; alpha4/beta2 (Homo sapiens, UniProt P17787+P43681); test: Agonist activity at alpha4beta2 nAChR (unknown origin); type: protein-complex assay
Sequence of Neuronal acetylcholine receptor; alpha4/beta2 (P17787 whole entry): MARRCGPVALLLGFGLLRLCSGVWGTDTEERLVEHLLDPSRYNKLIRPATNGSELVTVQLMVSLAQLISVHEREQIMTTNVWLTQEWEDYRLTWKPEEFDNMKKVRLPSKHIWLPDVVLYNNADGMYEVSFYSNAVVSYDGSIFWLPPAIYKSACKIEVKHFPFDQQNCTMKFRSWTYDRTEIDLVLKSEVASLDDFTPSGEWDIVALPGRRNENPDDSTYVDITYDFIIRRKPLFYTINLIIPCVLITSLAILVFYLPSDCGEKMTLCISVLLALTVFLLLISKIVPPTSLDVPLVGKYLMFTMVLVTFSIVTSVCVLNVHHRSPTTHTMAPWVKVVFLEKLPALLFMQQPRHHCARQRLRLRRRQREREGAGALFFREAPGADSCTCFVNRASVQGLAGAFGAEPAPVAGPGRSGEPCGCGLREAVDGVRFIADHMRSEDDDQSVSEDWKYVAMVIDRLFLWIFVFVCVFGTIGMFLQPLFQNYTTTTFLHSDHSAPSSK
Sequence of Neuronal acetylcholine receptor; alpha4/beta2 (P43681 whole entry): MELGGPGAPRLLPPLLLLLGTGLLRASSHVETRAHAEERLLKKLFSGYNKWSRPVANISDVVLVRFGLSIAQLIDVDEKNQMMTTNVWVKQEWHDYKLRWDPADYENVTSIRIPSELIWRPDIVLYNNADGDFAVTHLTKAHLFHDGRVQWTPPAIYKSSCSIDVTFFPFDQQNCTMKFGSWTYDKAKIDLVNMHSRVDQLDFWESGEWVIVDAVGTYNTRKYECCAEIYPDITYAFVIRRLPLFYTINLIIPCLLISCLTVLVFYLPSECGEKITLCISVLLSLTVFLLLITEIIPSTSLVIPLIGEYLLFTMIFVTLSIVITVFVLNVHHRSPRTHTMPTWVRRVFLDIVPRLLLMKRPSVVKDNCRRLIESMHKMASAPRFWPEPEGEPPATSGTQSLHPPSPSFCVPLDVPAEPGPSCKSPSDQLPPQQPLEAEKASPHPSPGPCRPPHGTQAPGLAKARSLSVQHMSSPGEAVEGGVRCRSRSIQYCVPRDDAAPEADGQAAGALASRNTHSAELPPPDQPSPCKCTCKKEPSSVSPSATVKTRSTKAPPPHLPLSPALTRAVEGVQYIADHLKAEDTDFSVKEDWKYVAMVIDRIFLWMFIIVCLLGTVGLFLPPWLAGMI

[17] = target: T2, 5-hydroxytryptamine receptor 3A (Homo sapiens, UniProt P46098); test: Inhibition of 5HT3 receptor (unknown origin)
T2 sequence (P46098 whole entry): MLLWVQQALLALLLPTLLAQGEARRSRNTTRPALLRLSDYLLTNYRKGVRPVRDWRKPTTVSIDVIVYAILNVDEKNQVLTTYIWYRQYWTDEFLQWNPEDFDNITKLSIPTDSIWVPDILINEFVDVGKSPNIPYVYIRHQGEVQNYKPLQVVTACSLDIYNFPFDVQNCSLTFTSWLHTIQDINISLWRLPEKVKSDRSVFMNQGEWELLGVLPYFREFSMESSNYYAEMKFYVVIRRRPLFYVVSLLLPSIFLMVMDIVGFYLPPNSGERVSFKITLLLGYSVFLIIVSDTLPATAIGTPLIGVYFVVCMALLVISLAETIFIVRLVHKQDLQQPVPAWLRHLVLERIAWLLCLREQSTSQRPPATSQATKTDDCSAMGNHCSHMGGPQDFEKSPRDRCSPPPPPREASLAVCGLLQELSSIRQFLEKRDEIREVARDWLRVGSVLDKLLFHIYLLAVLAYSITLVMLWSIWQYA

T1 sequence (Q05941 whole entry): as the sequence (Q05941 whole entry) above

Structure (SMILES): CCN(C)CCCn1c(=O)c(C#N)c(-c2ccccc2)c2ccccc21
- EC50 [1]: 4.3 µM

Structure (SMILES): CN(C)CCCn1c(=O)c(C#N)cc2ccccc21
- EC50 [1]: > 10 µM

Structure (SMILES): Cc1ccc(-c2cc(=O)n(CC3CCCNC3)c3ccccc23)cc1 (racemic)
- EC50 [1]: > 10 µM

Structure (SMILES): O=c1cc(-c2ccccc2)c2ccccc2n1CC1CN2CCC1CC2 (centres undefined)
- Kp at 0.5 h [2]: 0.02
- Emax [3]: 60%
- Emax [4]: 110%
- pKa [5]: 10.1
- EC50 [6]: 0.76 µM
- Papp [7]: 90 ×10⁻⁶ cm/s
- EC50 [1]: 0.15 µM
- efflux ratio [8]: 6.9

Structure (SMILES): CN(C)CCn1c(=O)cc(-c2ccccc2)c2ccccc21
- EC50 [1]: > 10 µM

Structure (SMILES): CC(=O)NCc1cccc(-c2cc(=O)n(CC3CN4CCC3CC4)c3ccccc23)c1 (racemic)
- Emax [3]: 21%
- Ratio EC50 [9]: 100
- Ratio EC50 [10]: 100
- Emax [4]: 84%
- Ratio IC50/EC50 [11]: 50
- Papp [7]: 0.1 ×10⁻⁶ cm/s
- EC50 [1]: 0.032 µM
- Ratio EC50 [12]: 100

Structure (SMILES): CC(=O)NCc1cccc(-c2cc(=O)n(CC3CCCNC3)c3ccccc23)c1 (racemic)
- EC50 [1]: 0.1 µM

Structure (SMILES): CC(CN(C)C)Cn1c(=O)cc(-c2ccccc2)c2ccccc21 (racemic)
- EC50 [1]: > 10 µM

Structure (SMILES): c1cnc2c(c1)C[C@@]1(CN3CCC1CC3)O2 [AZD0328]
- Kp at 0.5 h [13]: 1.7
- pKa [5]: 8.9
- Papp [7]: 51 ×10⁻⁶ cm/s
- efflux ratio [8]: 0.9

Structure (SMILES): O=c1cc(-c2cccc3[nH]ccc23)c2ccccc2n1CC1CN2CCC1CC2 (racemic)
- Emax [3]: 62%
- Ratio EC50 [9]: 100
- Ratio EC50 [10]: 100
- Emax [4]: 80%
- EC50 [6]: 0.54 µM
- Ratio IC50/EC50 [11]: 50
- Papp [7]: 40 ×10⁻⁶ cm/s
- EC50 [1]: 0.023 µM
- Ratio EC50 [12]: 100
- efflux ratio [8]: > 18

Structure (SMILES): CN1CCCC(Cn2c(=O)c(C#N)c(-c3ccccc3)c3ccccc32)C1 (racemic)
- EC50 [1]: > 10 µM

Structure (SMILES): CN(C)CCCn1c(=O)cc(-c2ccccc2)c2ccccc21
- EC50 [1]: 2.8 µM

Structure (SMILES): CS(=O)(=O)NCc1cccc(-c2cc(=O)n(CC3CN4CCC3CC4)c3ccccc23)c1 (racemic)
- Emax [3]: 21%
- Ratio EC50 [9]: 100
- Ratio EC50 [10]: 100
- Emax [4]: 97%
- EC50 [6]: 0.26 µM
- Ratio IC50/EC50 [11]: 50
- EC50 [1]: 0.014 µM
- Ratio EC50 [12]: 100

Structure (SMILES): CN(C)CCCCn1c(=O)cc(-c2ccccc2)c2ccccc21
- EC50 [1]: > 10 µM

Structure (SMILES): N#Cc1c(-c2ccccc2)c2ccccc2n(CCCN2CCCC2)c1=O
- EC50 [1]: 9.3 µM

Structure (SMILES): CS(=O)(=O)NCc1cccc(-c2cc(=O)n(CC3CCCNC3)c3ccccc23)c1 (racemic)
- EC50 [1]: 0.077 µM

Structure (SMILES): CN(C)CCCn1c(=O)c(C#N)c(-c2ccccc2)c2ccccc21
- Emax [3]: 15%
- EC50 [14]: > 100 µM
- EC50 [15]: > 100 µM
- Emax [4]: 44%
- EC50 [16]: > 100 µM
- IC50 [17]: 19 µM
- EC50 [6]: 8.2 µM
- EC50 [1]: 1.3 µM

Structure (SMILES): CC(CCn1c(=O)cc(-c2ccccc2)c2ccccc21)N(C)C (racemic)
- EC50 [1]: > 10 µM

Structure (SMILES): O=c1cc(-c2ccccc2)c2ccccc2n1CC1CN2CCC1(F)CC2 (racemic)
- pKa [5]: 7.6
- Papp [7]: 38 ×10⁻⁶ cm/s
- efflux ratio [8]: 0.6

Structure (SMILES): CN(C)CCCn1ccc(-c2ccccc2)c(C#N)c1=O
- EC50 [1]: > 10 µM

Structure (SMILES): COc1cccc(-c2cc(=O)n(CC3CCCNC3)c3ccccc23)c1 (racemic)
- EC50 [1]: 1.3 µM

Structure (SMILES): O=c1cc(-c2ccccc2)c2ccccc2n1CC1CNCCO1 (centres undefined)
- Emax [3]: 34%
- Kp at 0.5 h [13]: 0.9
- Emax [4]: 41%
- pKa [5]: 8.1
- EC50 [6]: 1.2 µM
- Papp [7]: 55 ×10⁻⁶ cm/s
- EC50 [1]: 0.26 µM
- efflux ratio [8]: 1

Structure (SMILES): CNCCCn1c(=O)c(C#N)c(-c2ccccc2)c2ccccc21
- EC50 [1]: 0.9 µM

Structure (SMILES): O=c1cc(-c2cccc3[nH]ccc23)c2ccccc2n1CC1CCCNC1 (racemic)
- EC50 [1]: 0.11 µM

Structure (SMILES): Cc1ccccc1-c1cc(=O)n(CC2CCCNC2)c2ccccc12 (racemic)
- EC50 [1]: 1.5 µM

Structure (SMILES): O=c1cc(-c2ccccc2)c2ccccc2n1CC1CCCNC1 (centres undefined)
- Emax [3]: 60%
- Emax [4]: 30%
- EC50 [6]: 2.5 µM
- EC50 [1]: 0.21 µM

Structure (SMILES): N#Cc1c(-c2ccccc2)c2ccccc2n(CC2CCCNC2)c1=O (racemic)
- EC50 [1]: 0.46 µM
